Four molecules from paper PMC3344892, “NAD-Independent L-Lactate Dehydrogenase Is Required for L-Lactate Utilization in Pseudomonas stutzeri SDM” (PLoS ONE, 2012) can be followed below.

Data set [1] concerns the target T1, L-iLDH (NAD-independent L-lactate dehydrogenase) from P. stutzeri SDM (Stutzerimonas stutzeri, UniProt I1SLB1).
T1 construct: gene lldD; full-length lldD in pETDuet-1 (HindIII/XhoI), expressed in E. coli C43(DE3), HisTrap purified (tag not described); also purified natively from membrane with Triton X-100; one FMN per subunit
T1 sequence (I1SLB1 1-391): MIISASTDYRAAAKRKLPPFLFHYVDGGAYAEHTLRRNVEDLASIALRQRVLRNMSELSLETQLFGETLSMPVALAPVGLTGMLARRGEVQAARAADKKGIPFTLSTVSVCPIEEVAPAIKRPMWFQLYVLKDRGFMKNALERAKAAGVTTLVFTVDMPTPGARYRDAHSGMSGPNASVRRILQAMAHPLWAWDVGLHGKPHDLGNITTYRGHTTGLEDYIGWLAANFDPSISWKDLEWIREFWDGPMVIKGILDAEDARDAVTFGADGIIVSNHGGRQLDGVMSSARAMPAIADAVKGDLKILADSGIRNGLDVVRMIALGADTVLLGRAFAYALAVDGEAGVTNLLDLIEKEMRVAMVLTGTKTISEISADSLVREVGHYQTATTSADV
Put plainly: HPLC of flavin released by boiling; UV-visible spectrum. It is filed as binding. The settings on record: native enzyme purified from membrane; recombinant enzyme similar; one FMN per subunit.

Data set [2] deals with T1, L-iLDH (NAD-independent L-lactate dehydrogenase) from P. stutzeri SDM. Description: MTT reduction at […] nm, double-reciprocal plots. It is filed as biochemical. (In general: Formazan colour is commonly taken as a measure of viable cells.)
Substrate in data set [3]: CC[C@H](O)C(=O)O
Put plainly: purified protein. The data set is classed as biochemical, Stutzerimonas stutzeri. The settings on record: apparent, fixed 0.2 mM MTT as electron acceptor, 50 mM Tris-HCl pH 7.5, 30°C.

Substrate in data set [4]: C[C@H](O)C(=O)O
Description: purified protein. The data set is classed as biochemical, Stutzerimonas stutzeri. The settings on record: apparent, fixed 0.2 mM MTT as electron acceptor, 50 mM Tris-HCl pH 7.5, 30°C.

For the molecule `Cc1cc2nc3c(=O)[nH]c(=O)nc-3n(C[C@H](O)[C@H](O)[C@H](O)COP(=O)(O)O)c2cc1C` [FMN], the “HPLC of flavin released by boiling; UV-visible spectrum” value in data set [1] is reported as “the native enzyme contains one FMN per subunit”. In general, Ki refers to the dissociation constant of the complex between target and ligand, obtained from inhibition or displacement. A lower Ki goes with a stronger hold on the target. In data set [2], `O=C(O)C(=O)O` [oxalate] yielded a Ki of 1.9 ± 0.1 mM.

Turning to `NC(=O)C(=O)O` [oxamate], in data set [2], the affinity, expressed as Ki, was 29 ± 1.7 mM.

B1: L-iLDH (NAD-independent L-lactate dehydrogenase) from P. stutzeri SDM (Stutzerimonas stutzeri) (protein)
chain: T1 sequence (I1SLB1 1-391)
notes: full-length lldD in pETDuet-1 (HindIII/XhoI), expressed in E. coli C43(DE3), HisTrap purified (tag not described); also purified natively from membrane with Triton X-100; one FMN per subunit
As a reminder, the Km is the concentration of substrate that gives half-maximal velocity. Regarding B1, the Km came to 99 ± 3.9 µM in the data set “purified protein [3]” and 29 ± 0.65 µM in “purified protein [4]”.
